Measured values published in patent publication US20150231109A1, “COMBINATIONS (CATECHINS AND METHOTREXATE) FOR USE IN THE TREATMENT OF MELANOMAS” (UNIVERSIDAD DE MURCIA, priority 2012, published 2015).

How the values were obtained:
[1] = test system: MITF; assay: MITF mRNA and protein expression (RT-PCR, western blot, immunofluorescence) in melanoma cell lines; format: cell-based; conditions: MTX 1 μM; mouse (B16/F10) and human (SK-MEL-28, G361, A375) cell lines
Description: D, Immunofluorescence of control or MTX-treated (3 h) 501 MEL cells using anti-MITF and DAPI.
mRNA extraction, cDNA synthesis, and conventional and qRT-PCR were performed under standard conditions. Primers were designed using Primer Express version 2.0 software (Applied Biosystems, Foster City, Calif.) and synthesized by Invitrogen (Barcelona, Spain).
Whole cell lysates were collected by adding SDS sample buffer. After extensive sonication, samples were boiled for 10 min and subjected to SDS-PAGE. Proteins were then transferred to nitrocellulose membranes and analyzed by immunoblotting (ECL Plus, GE Healthcare, Barcelona, Spain).
Confocal microscopy was carried out using a Leica TCS 4D confocal microscope (Wetzlar, Germany). For indirect immuno-fluorescence studies, preparation of the cells on glass slides were fixed with cold acetone for 5 min, and washed with PBS. The cells were incubated with 3% bovine serum albumin (BSA) for 20 min and then 2 h at room temperature with primary antibodies (diluted 1:200 in PBS containing 1% BSA) as described in each experiment. The cells were washed three times in PBS and incubated for 1 h at room temperature with Alexa Fluor Dyes (Invitrogen) as secondary antibodies. After 3 washes with PBS, the cells were incubated with 0.01% 4′-6-diamidino-2-phenylidene (DAPI; Sigma) in water for 5 min. […]

[2] = Pharmacokinetic studies in mice plasma; format: in vivo; conditions: mouse, ip, male C57BL/6 mice, intra-peritoneal MTX 50 mg/kg alone or with TMECG 50 mg/kg
Description: Pharmacokinetic studies were performed in male C57BL/6 mice after intra-peritoneal injection of MTX (50 mg/kg) and/or TMECG (50 mg/kg). Animals were anesthetized with CO2, and whole blood samples (˜0.5 mL) were collected via cardiac puncture. Samples for drug quantification were collected from different animals (in triplicate) at 5, 15, and 30 min and at 1, 2, 4, and 6 hr post-dose. Whole blood samples were transferred to lithium heparin blood collection tubes, and then centrifuged at 10,000 rpm for 10 min at 4° C. After plasma deproteinization with 5% trichloroacetic acid (TCA), MTX and TMECG plasma concentrations were calculated by HPLC. Pharmacokinetic parameters were estimated using the WinNonlin software package (WinNonlin Professional version 5.1., Pharsight Corporation, CA). WinNonlin model 200 was used for the non-compartmental analysis of the concentration-time data. The area under the plasma concentration-time curve (AUClast) from time 0 to the last point (tlast) with measurable concentration (Clast) was estimated using a linear trapezoidal approximation (AUClast). The elimination half-life (t1/2) was calculated as ln2/kel, where kel (elimination rate constant) was estimated using least squares regression analysis of the concentration-time data obtained during the terminal log-linear elimination phase. The maximum plasma concentrations (Cmax) were estimated directly from the data, with tmax being defined as the time of the first occurrence of Cmax.

AUC ([2]; read-out: MTX parameters AUC): 32000 ng·h/mL
Cmax ([2]; read-out: MTX parameters Cmax): 24600 ng/mL
Tmax ([2]; read-out: MTX parameters Tmax): 0.5 h
half-life ([2]; read-out: MTX parameters t1/2 (converted)): 1.77 h
SMILES: CN(Cc1cnc2nc(N)nc(N)c2n1)c1ccc(C(=O)N[C@@H](CCC(=O)O)C(=O)O)cc1 [MTX, methotrexate]
MITF mRNA and protein [1]: increased
